Assay results: patent US9416111B2, “Substituted diazine and triazine spleen tyrosine kinease (Syk) inhibitors” (Merck Sharp & Dohme Corp., priority 2012, dated 2016)
“And” between values parts separate entries of the source, which are not always exact repeats. Identical values can stand only once.

Each molecule was assayed against T1, recombinant human GST-SYK (Homo sapiens, UniProt P43405) (assay: Homogeneous Time-Resolved Fluorescence (HTRF) assay for the recombinant human Syk enzyme). Conditions: GST-hSYK 5 pM, ATP 25 μM, IC50 rated in classes, read-out: rhSYK Activity.
T1 construct: purchased Carna Biosciences 08-176
Assay type: biochemical
Outline: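 HTRF read-out, via Europium anti-phosphotyrosine antibody and SA-APC added with EDTA, measured phosphorylation of a 250 nM biotinylated substrate after 45 min at room temperature with 25 μM ATP and 5 mM magnesium. Enzyme was 5 pM GST-hSYK, preincubated 10 min with compound in Tris pH 7.5 buffer containing DTT.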

| Structure (SMILES) | IC50 |
| --- | --- |
| Cc1cc(Nc2nccc(C(F)(F)F)n2)cc(-c2cnc(NCCO)nc2)c1 [Example 2.62, 2-{[5-(3-methyl-5-{[4-(trifluoromethyl)pyrimidin-2-yl]amino}phenyl)pyrimidin-2-yl]amino}ethanol] | < 100 nM |
| Cc1cc(Nc2nccc(C(F)(F)F)n2)cc(-c2cnc(NCc3cn(C)cn3)nc2)c1 [Example 2.63, N-[3-methyl-5-(2-{[(1-methyl-1H-imidazol-4-yl)methyl]amino}pyrimidin-5-yl)phenyl]-4-(trifluoromethyl)pyrimidin-2-amine] | < 100 nM |
| Cc1cc(Nc2nccc(C(F)(F)F)n2)cc(-c2cnc(NCC(=O)N(C)C)nc2)c1 [Example 2.64, N,N-dimethyl-N~2~-[5-(3-methyl-5-{[4-(trifluoromethyl)pyrimidin-2-yl]amino}phenyl)pyrimidin-2-yl]glycinamide] | < 100 nM |
| Cc1cc(Nc2nccc(C(F)(F)F)n2)cc(-c2cnc(N3CCN(CC(F)(F)F)CC3)nc2)c1 [Example 2.65, N-(3-methyl-5-{2-[4-(2,2,2-trifluoroethyl)piperazin-1-yl]pyrimidin-5-yl}phenyl)-4-(trifluoromethyl)pyrimidin-2-amine] | 100 to 1000 nM |
| COCC1CCN(c2ncc(-c3cc(C)cc(Nc4nccc(C(F)(F)F)n4)c3)cn2)C1 (stereo not drawn) [Example 2.66, N-(3-{2-[3-(methoxymethyl)pyrrolidin-1-yl]pyrimidin-5-yl}-5-methylphenyl)-4-(trifluoromethyl)pyrimidin-2-amine] | 100 to 1000 nM |
| Cc1cc(Nc2nccc(C(F)(F)F)n2)cc(-c2cnc(N3CCN(C)C(=O)C3C)nc2)c1 (stereo not drawn) [Example 2.67, 1,3-dimethyl-4-[5-(3-methyl-5-{[4-(trifluoromethyl)pyrimidin-2-yl]amino}phenyl)pyrimidin-2-yl]piperazin-2-one] | < 100 nM |
| CCCN1CCCN(c2ncc(-c3cc(C)cc(Nc4nccc(C(F)(F)F)n4)c3)cn2)CC1 [Example 2.68, N-{3-methyl-5-[2-(4-propyl-1,4-diazepan-1-yl)pyrimidin-5-yl]phenyl}-4-(trifluoromethyl)pyrimidin-2-amine] | < 100 nM |
| CNC(=O)CCNc1ncc(-c2cc(C)cc(Nc3nccc(C(F)(F)F)n3)c2)cn1 [Example 2.69, N-methyl-N~3~-[5-(3-methyl-5-{[4-(trifluoromethyl)pyrimidin-2-yl]amino}phenyl)pyrimidin-2-yl]-beta-alaninamide] | < 100 nM |
| CC(=O)NCCCNc1ncc(-c2cc(C)cc(Nc3nccc(C(F)(F)F)n3)c2)cn1 [Example 2.71, N-(3-{[5-(3-methyl-5-{[4-(trifluoromethyl)pyrimidin-2-yl]amino}phenyl)pyrimidin-2-yl]amino}propyl)acetamide] | < 100 nM |
| Cc1cc(Nc2nccc(C(F)(F)F)n2)cc(-c2cnc(N[C@@H]3CCC(=O)NC3)nc2)c1 [Example 2.72, (5R)-5-{[5-(3-methyl-5-{[4-(trifluoromethyl)pyrimidin-2-yl]amino}phenyl)pyrimidin-2-yl]amino}piperidin-2-one] | < 100 nM |
| Cc1cc(Nc2nccc(C(F)(F)F)n2)cc(-c2cnc(N[C@H]3CCC(=O)NC3)nc2)c1 [Example 2.73, (5S)-5-{[5-(3-methyl-5-{[4-(trifluoromethyl)pyrimidin-2-yl]amino}phenyl)pyrimidin-2-yl]amino}piperidin-2-one] | < 100 nM |
| Cc1cc(Nc2nccc(C(F)(F)F)n2)cc(-c2cnc(N3CCCC(O)C3)nc2)c1 (stereo not drawn) [Example 2.75, 1-[5-(3-methyl-5-{[4-(trifluoromethyl)pyrimidin-2-yl]amino}phenyl)pyrimidin-2-yl]piperidin-3-ol] | < 100 nM |
| Cc1cc(Nc2nccc(C(F)(F)F)n2)cc(-c2cnc(NC3(C(=O)O)CCCC3)nc2)c1 [Example 2.76, 1-{[5-(3-methyl-5-{[4-(trifluoromethyl)pyrimidin-2-yl]amino}phenyl)pyrimidin-2-yl]amino}cyclopentanecarboxylic acid] | < 100 nM |
| Cc1cc(Nc2nccc(C(F)(F)F)n2)cc(-c2cnc(N3CCC(C(=O)O)CC3)nc2)c1 [Example 2.79, 1-[5-(3-methyl-5-{[4-(trifluoromethyl)pyrimidin-2-yl]amino}phenyl)pyrimidin-2-yl]piperidine-4-carboxylic acid] | < 100 nM |
| Cc1cc(Nc2nccc(C(F)(F)F)n2)cc(-c2cnc(N(C)C(=O)CC#N)nc2)c1 [Example 2.80, 2-cyano-N-methyl-N-[5-(3-methyl-5-{[4-(trifluoromethyl)pyrimidin-2-yl]amino}phenyl)pyrimidin-2-yl]acetamide] | < 100 nM |

Further lines, results first:

| IC50 | Structure (SMILES) |
| --- | --- |
| 100 to 1000 nM and < 100 nM | Cc1cc(Nc2nccc(C(F)(F)F)n2)cc(-c2cnccn2)c1 [Example 3.2, N-(3-methyl-5-pyrazin-2-ylphenyl)-4-(trifluoromethyl)pyrimidin-2-amine] |
| 1000 to 10000 nM | CCOC(=O)CCc1cnc(-c2cccc(Nc3nccc(C(F)(F)F)n3)c2)cn1 [Example 3.3, ethyl 3-[5-(3-{[4-(trifluoromethyl)pyrimidin-2-yl]amino}phenyl)pyrazin-2-yl]propanoate] |
| 100 to 1000 nM | O=C(O)CCc1cnc(-c2cccc(Nc3nccc(C(F)(F)F)n3)c2)cn1 [Example 3.4, 3-[5-(3-{[4-(trifluoromethyl)pyrimidin-2-yl]amino}phenyl)pyrazin-2-yl]propanoic acid] |
| < 100 nM | COc1ccnc(Nc2cc(C)cc(-c3cnc(CCC(=O)O)cn3)c2)n1 [Example 3.6, 3-(5-{3-[(4-methoxypyrimidin-2-yl)amino]-5-methylphenyl}pyrazin-2-yl)propanoic acid] |
| 100 to 1000 nM | CCOC(=O)CCc1cnc(-c2cc(C)cc(Nc3nccc(C(F)(F)F)n3)c2)cn1 [Example 3.7, ethyl 3-[5-(3-methyl-5-{[4-(trifluoromethyl)pyrimidin-2-yl]amino}phenyl)pyrazin-2-yl]propanoate] |
| < 100 nM | Cc1cc(Nc2nccc(C(F)(F)F)n2)cc(-c2cnc(CCC(=O)O)cn2)c1 [Example 3.8, 3-[5-(3-methyl-5-{[4-(trifluoromethyl)pyrimidin-2-yl]amino}phenyl)pyrazin-2-yl]propanoic acid] |
| 100 to 1000 nM | CCOC(=O)CCc1cnc(-c2cc(C)cc(Nc3nccc(C)n3)c2)cn1 [Example 3.9, ethyl 3-(5-{3-methyl-5-[(4-methylpyrimidin-2-yl)amino]phenyl}pyrazin-2-yl)propanoate] |
| 100 to 1000 nM | Cc1cc(Nc2nccc(C)n2)cc(-c2cnc(CCC(=O)O)cn2)c1 [Example 3.10, 3-(5-{3-methyl-5-[(4-methylpyrimidin-2-yl)amino]phenyl}pyrazin-2-yl)propanoic acid] |
| < 100 nM | CCOC(=O)CCc1cnc(-c2cc(C)cc(Nc3nccc(C4CC4)n3)c2)cn1 [Example 3.11, ethyl 3-(5-{3-[(4-cyclopropylpyrimidin-2-yl)amino]-5-methylphenyl}pyrazin-2-yl)propanoate] |
| < 100 nM | Cc1cc(Nc2nccc(C3CC3)n2)cc(-c2cnc(CCC(=O)O)cn2)c1 [Example 3.12, 3-(5-{3-[(4-cyclopropylpyrimidin-2-yl)amino]-5-methylphenyl}pyrazin-2-yl)propanoic acid] |
| 1000 to 10000 nM | CCOC(=O)CCc1cncc(-c2cccc(Nc3nccc(C(F)(F)F)n3)c2)n1 [Example 3.13, ethyl 3-[6-(3-{[4-(trifluoromethyl)pyrimidin-2-yl]amino}phenyl)pyrazin-2-yl]propanoate] |
| 100 to 1000 nM | O=C(O)CCc1cncc(-c2cccc(Nc3nccc(C(F)(F)F)n3)c2)n1 [Example 3.14, 3-[6-(3-{[4-(trifluoromethyl)pyrimidin-2-yl]amino}phenyl)pyrazin-2-yl]propanoic acid] |
| < 100 nM | COc1ccnc(Nc2cc(C)cc(-c3cncc(CCC(=O)O)n3)c2)n1 [Example 3.16, 3-(6-{3-[(4-methoxypyrimidin-2-yl)amino]-5-methylphenyl}pyrazin-2-yl)propanoic acid] |
| 100 to 1000 nM | CCOC(=O)CCc1cncc(-c2cc(C)cc(Nc3nccc(C(F)(F)F)n3)c2)n1 [Example 3.17, ethyl 3-[6-(3-methyl-5-{[4-(trifluoromethyl)pyrimidin-2-yl]amino}phenyl)pyrazin-2-yl]propanoate] |
| < 100 nM | Cc1cc(Nc2nccc(C(F)(F)F)n2)cc(-c2cncc(CCC(=O)O)n2)c1 [Example 3.18, 3-[6-(3-methyl-5-{[4-(trifluoromethyl)pyrimidin-2-yl]amino}phenyl)pyrazin-2-yl]propanoic acid] |
| 100 to 1000 nM | CCOC(=O)CCc1cncc(-c2cc(C)cc(Nc3nccc(C)n3)c2)n1 [Example 3.19, ethyl 3-(6-{3-methyl-5-[(4-methylpyrimidin-2-yl)amino]phenyl}pyrazin-2-yl)propanoate] |
| 100 to 1000 nM | Cc1cc(Nc2nccc(C)n2)cc(-c2cncc(CCC(=O)O)n2)c1 [Example 3.20, 3-(6-{3-methyl-5-[(4-methylpyrimidin-2-yl)amino]phenyl}pyrazin-2-yl)propanoic acid] |
| 100 to 1000 nM | CCOC(=O)CCc1cncc(-c2cc(C)cc(Nc3nccc(C4CC4)n3)c2)n1 [Example 3.21, ethyl 3-(6-{3-[(4-cyclopropylpyrimidin-2-yl)amino]-5-methylphenyl}pyrazin-2-yl)propanoate] |
| < 100 nM | Cc1cc(Nc2nccc(C3CC3)n2)cc(-c2cncc(CCC(=O)O)n2)c1 [Example 3.22, 3-(6-{3-[(4-cyclopropylpyrimidin-2-yl)amino]-5-methylphenyl}pyrazin-2-yl)propanoic acid] |
| 100 to 1000 nM | Cc1cc(Nc2nccc(C(F)(F)F)n2)cc(-c2ncccn2)c1 [Example 3.23, N-(3-methyl-5-pyrimidin-2-ylphenyl)-4-(trifluoromethyl)pyrimidin-2-amine] |

Same assay, conditions: GST-hSYK 5 pM, ATP 25 μM, values in text, read-out: IC50

| IC50 [nM] | Structure (SMILES) |
| --- | --- |
| 51.6 | Cc1cc(Nc2nccc(C3CC3)n2)cc(-c2cnc(CCC(=O)O)nc2)c1 [Example 3.1, 3-(5-{3-[(4-cyclopropylpyrimidin-2-yl)amino]-5-methylphenyl}pyrimidin-2-yl)propanoic acid] |
